PMC7708446, “^18F-meta-fluorobenzylguanidine (^18F-mFBG) to monitor changes in norepinephrine transporter expression in response to therapeutic intervention in neuroblastoma models” (Scientific Reports, 2020)
Marks after values point to notes of the source that are not given here.

Tests used:
[1] = target: T1, NET-1 (Homo sapiens, UniProt P23975); experiment: ^18F-mFBG / ^123I-mIBG uptake in NB cell lines with and without desipramine; type: cell-based; settings: 1 h at 37 °C, rank among Kelly, SK-N-SH, NBLS
T1 construct: SK-N-SH, SK-N-BE(2)C, Kelly, NBLS human NB cell lines; endogenous in cells; host or cells: SK-N-SH, SK-N-BE(2)C, Kelly, NBLS human neuroblastoma cell lines
T1 sequence (P23975 whole entry): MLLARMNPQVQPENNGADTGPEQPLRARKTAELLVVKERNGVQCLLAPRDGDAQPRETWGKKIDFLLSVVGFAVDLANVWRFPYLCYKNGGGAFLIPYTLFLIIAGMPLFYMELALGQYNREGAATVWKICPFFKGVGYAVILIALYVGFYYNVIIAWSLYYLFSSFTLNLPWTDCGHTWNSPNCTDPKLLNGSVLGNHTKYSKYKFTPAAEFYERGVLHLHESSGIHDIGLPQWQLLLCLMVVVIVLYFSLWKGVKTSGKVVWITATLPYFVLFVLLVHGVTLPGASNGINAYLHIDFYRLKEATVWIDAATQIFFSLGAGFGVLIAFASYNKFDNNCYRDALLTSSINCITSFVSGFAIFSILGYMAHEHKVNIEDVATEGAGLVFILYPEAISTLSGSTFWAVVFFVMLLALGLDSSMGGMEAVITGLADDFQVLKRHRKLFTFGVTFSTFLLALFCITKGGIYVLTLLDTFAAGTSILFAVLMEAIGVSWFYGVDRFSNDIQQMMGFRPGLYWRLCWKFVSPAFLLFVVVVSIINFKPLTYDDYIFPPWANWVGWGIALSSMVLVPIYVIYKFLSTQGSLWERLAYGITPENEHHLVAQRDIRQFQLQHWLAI
Description: Figure 1 (a) Simplified radiosynthesis scheme of ^18F-mFBG by copper-mediated deborylation. (b) Total NET-1 protein expression in selected NB cell lines determined by Western blot. Full length blots are presented in Supplementary Figure WB1. […] Data are presented as mean ± SEM, n ≥ 2 per group, performed in triplicate. Graphs are generated using GraphPad Prism (v 8.4.1), https://www.graphpad.com.
For each cell line the cell-associated radioactivity was normalised to the number of cells and then each group was presented as a percentage of the signal acquired for SK-N-BE(2)C cells (mean of n = 3 independent experiments performed in triplicate ± SEM).

[2] = system: SK-N-BE(2)C xenografts; experiment: Ex vivo biodistribution (γ-counter), mice bearing SK-N-BE(2)C xenografts; type: in vivo; settings: for ^18F-mFBG biodistribution 4 h p.i., Blood / ^18F-mFBG biodistribution 4 h p.i., Bone / ^18F-mFBG biodistribution 4 h p.i., Brown adipose / ^18F-mFBG biodistribution 4 h p.i., Heart / ^18F-mFBG biodistribution 4 h p.i., Kidney / ^18F-mFBG biodistribution 4 h p.i., Liver / ^18F-mFBG biodistribution 4 h p.i., Lungs / ^18F-mFBG biodistribution 4 h p.i., Muscle / ^18F-mFBG biodistribution 4 h p.i., Pancreas / ^18F-mFBG biodistribution 4 h p.i., Small intestine / ^18F-mFBG biodistribution 4 h p.i., Spleen / ^18F-mFBG biodistribution 4 h p.i., Tumour / ^18F-mFBG biodistribution 4 h p.i., Tumour:blood / ^18F-mFBG biodistribution 4 h p.i., Tumour:muscle: SK-N-BE(2)C
Experimental: All studies were conducted in compliance with licenses issued under the UK Animals (Scientific Procedures) Act 1986 and approved by the Institute of Cancer Research Animal Welfare and Ethical Review Body (AWERB) according to the United Kingdom National Cancer Research Institute Guidelines for Animal Welfare in Cancer Research (project license PCC916B22, Animals in Science Regulation Unit, Home Office Science, London, UK)[65]. Female Nu(NCr)-Foxn1nu mice (5–7 weeks; 20–22 g) obtained from an in-house breeding colony were used in the studies. Animals were housed in a temperature-controlled facility with 12 h on–12 h off light cycle and provided water and laboratory rodent food ad libitum. Subcutaneous xenografts were generated by injection of either Kelly (5 × 10^6/0.1 mL PBS/Matrigel 30% v/v; BD Matrigel Matrix, BD Bioscience, San Jose, California, US) or SK-N-BE(2)C (1 × 10^6/0.1 mL PBS/Matrigel) into the lower flank. For the treatment studies, AZD2014 stock solution in DMSO was diluted in PEG400 to a final concentration of 2 mg/mL (10% DMSO maximum). When tumours reached ~ 100 mm^3 (calliper measurements using formula: Volume = (Width(2) × Length)/2), mice were treated daily, for a total of either 1, 3 or 7 days, by oral gavage with AZD2014 (20 or 25 mg/kg/day) or vehicle control. Mice were monitored daily for body weight or other adverse effects.
When the tumours reached approximately 100–200 mm^3, mice were anaesthetised with an isoflurane/O2 mixture (1.5–2.0% v/v) and intravenously injected with either ^18F-mFBG (~ 7.5 MBq) or ^123I-mIBG (~ 20 MBq). Mice were then imaged using an Albira PET/SPECT/CT scanner (Bruker, Coventry, UK). Whole body PET static images were acquired after 1 and 4 h post-injection (p.i.) for 10 min with an energy window of 358 to 664 keV followed by CT acquisition. Acquisition, reconstruction and image analysis were performed as described previously. Following the final scan, the mice were sacrificed and the major organs were excised, weighed and their associated radioactivity was measured using a γ-counter. Biodistribution and image quantification were expressed as a percentage of injected dose per gram of tissue (%ID/g), whereby 1 cm^3 on PET acquisitions were assumed to equal 1 g (n ≥ 3 mice ± SD).

[3] = SK-N-BE(2)C xenografts, 4 h p.i.

## N=C(N)NCc1cccc([18F])c1 [^18F-mFBG, ^18F-meta-fluorobenzylguanidine]
[1]
  cell-associated radioactivity, SK-N-BE(2)C: greatest uptake
[1]; SK-N-BE(2)C
  cell-associated radioactivity, Kelly: least uptake
[2]; [3]
  Tumour-to-blood ratio: 17.69 ± 10.00
  tumour-to-muscle ratio: 6.24 ± 3.64
[2]; SK-N-BE(2)C xenografts, 4 h p.i., n = 5
  tumour uptake: 2.96 ± 1.38 %ID/g
[2]; 3 Day AZD2014 (20 mg/kg/day)
  ^18F-mFBG biodistribution 4 h p.i., Blood: 0.16 ± 0.02 %ID/g
  ^18F-mFBG biodistribution 4 h p.i., Bone: 2.42 ± 2.57 %ID/g
  ^18F-mFBG biodistribution 4 h p.i., Brown adipose: 5.32 ± 1.51^b %ID/g
  ^18F-mFBG biodistribution 4 h p.i., Heart: 3.20 ± 0.43^a %ID/g
  ^18F-mFBG biodistribution 4 h p.i., Kidney: 0.89 ± 0.13 %ID/g
  ^18F-mFBG biodistribution 4 h p.i., Liver: 1.74 ± 0.23 %ID/g
  ^18F-mFBG biodistribution 4 h p.i., Lungs: 1.04 ± 0.12 %ID/g
  ^18F-mFBG biodistribution 4 h p.i., Muscle: 0.55 ± 0.09 %ID/g
  ^18F-mFBG biodistribution 4 h p.i., Pancreas: 1.29 ± 0.51 %ID/g
  ^18F-mFBG biodistribution 4 h p.i., Small intestine: 4.88 ± 1.28 %ID/g
  ^18F-mFBG biodistribution 4 h p.i., Spleen: 2.27 ± 1.06 %ID/g
  ^18F-mFBG biodistribution 4 h p.i., Tumour: 3.95 ± 1.53 %ID/g
  ^18F-mFBG biodistribution 4 h p.i., Tumour:blood: 23.76 ± 6.20
  ^18F-mFBG biodistribution 4 h p.i., Tumour:muscle: 7.06 ± 1.79
[2]; 1 day AZD2014 (20 mg/kg/day)
  ^18F-mFBG biodistribution 4 h p.i., Blood: 0.18 ± 0.04 %ID/g
  ^18F-mFBG biodistribution 4 h p.i., Bone: 4.55 ± 2.15^c %ID/g
  ^18F-mFBG biodistribution 4 h p.i., Brown adipose: 5.47 ± 0.45^b %ID/g
  ^18F-mFBG biodistribution 4 h p.i., Heart: 4.34 ± 2.38 %ID/g
  ^18F-mFBG biodistribution 4 h p.i., Kidney: 0.98 ± 0.04 %ID/g
  ^18F-mFBG biodistribution 4 h p.i., Liver: 1.63 ± 0.69 %ID/g
  ^18F-mFBG biodistribution 4 h p.i., Lungs: 1.27 ± 0.68 %ID/g
  ^18F-mFBG biodistribution 4 h p.i., Muscle: 0.59 ± 0.16 %ID/g
  ^18F-mFBG biodistribution 4 h p.i., Pancreas: 1.09 ± 0.42 %ID/g
  ^18F-mFBG biodistribution 4 h p.i., Small intestine: 4.79 ± 1.21 %ID/g
  ^18F-mFBG biodistribution 4 h p.i., Spleen: 2.93 ± 0.82 %ID/g
  ^18F-mFBG biodistribution 4 h p.i., Tumour: 3.29 ± 1.01 %ID/g
  ^18F-mFBG biodistribution 4 h p.i., Tumour:blood: 17.72 ± 2.35
  ^18F-mFBG biodistribution 4 h p.i., Tumour:muscle: 5.74 ± 1.77
[2]; 1 day vehicle
  ^18F-mFBG biodistribution 4 h p.i., Blood: 0.18 ± 0.02 %ID/g
  ^18F-mFBG biodistribution 4 h p.i., Bone: 4.98 ± 2.18^c %ID/g
  ^18F-mFBG biodistribution 4 h p.i., Brown adipose: 5.14 ± 0.38^b %ID/g
  ^18F-mFBG biodistribution 4 h p.i., Heart: 4.38 ± 1.68 %ID/g
  ^18F-mFBG biodistribution 4 h p.i., Kidney: 0.79 ± 0.36 %ID/g
  ^18F-mFBG biodistribution 4 h p.i., Liver: 1.94 ± 0.30 %ID/g
  ^18F-mFBG biodistribution 4 h p.i., Lungs: 1.22 ± 0.37 %ID/g
  ^18F-mFBG biodistribution 4 h p.i., Muscle: 0.60 ± 0.13 %ID/g
  ^18F-mFBG biodistribution 4 h p.i., Pancreas: 1.01 ± 0.18 %ID/g
  ^18F-mFBG biodistribution 4 h p.i., Small intestine: 4.50 ± 0.24^b %ID/g
  ^18F-mFBG biodistribution 4 h p.i., Spleen: 3.19 ± 0.63 %ID/g
